In publication PMC9037111, “Structure-based design, synthesis, and biological evaluation of novel piperine–resveratrol hybrids as antiproliferative agents targeting SIRT-2” (RSC Advances, 2021):
Read-outs that look alike come from different tables or passages of the source.

Columns and labels:
Test in all cases: cells
Parameters in all cases: species or system NCI-60 human tumour cell lines; NCI-60 one-dose screen at 10 uM, percent growth inhibition versus untreated control cells
[1] = tested on: M14; conditions: Homo sapiens, M14, growth inhibition, one dose
Description: (§1) The antiproliferative activity of the target compounds 5a–h was screened against a panel of 60 cancer cell lines according to NCI-guidelines at concentration of 10 μM. The results for each compound (Table 1) were recorded as the percent of growth inhibition of treated cells compared to untreated control cells. […] In addition, 5b recorded significant activity against leukemia cancer cell lines K-562 and MOLT-4, Non-small cell lung cancer cell lines NCI-H322M and NCI-H460, Colon cancer cell lines COLO 205, HCT-15 and HCT-116, CNS cancer cell lines SF-295 and SF-539, Melanoma cancer cell lines LOX IMVI and UACC-62, Ovarian cancer cell lines NCI/ADR-RES, OVCAR-3, and OVCAR-4, Renal cancer cell lines CAKI-1, ACHN, and UO-31, and Breast cancer MCF7 cell line with growth inhibition percentage between 80 to 95. […] The methodology of the NCI anticancer screening has been described in detail elsewhere (https://dtp.cancer.gov/).[52]

[2] = tested on: CCRF-CEM; conditions: Homo sapiens, CCRF-CEM, growth inhibition, one dose
Description: as §1

[3] = tested on: UACC-62; conditions: Homo sapiens, UACC-62, growth inhibition, one dose
Description: as §1

[4] = tested on: UO-31; conditions: Homo sapiens, UO-31, growth inhibition, one dose
Description: as §1

[5] = tested on: CAKI-1; conditions: Homo sapiens, CAKI-1, growth inhibition, one dose
Description: as §1

[6] = tested on: SR; conditions: Homo sapiens, SR, growth inhibition, one dose
Description: as §1

[7] = tested on: SNB-75; conditions: Homo sapiens, SNB-75, growth inhibition, one dose
Description: as §1

[8] = tested on: BT-549; conditions: Homo sapiens, BT-549, growth inhibition, one dose
Description: as §1

[9] = tested on: OVCAR-4; conditions: Homo sapiens, OVCAR-4, growth inhibition, one dose
Description: as §1

[10] = tested on: HL-60(TB); conditions: Homo sapiens, HL-60, growth inhibition, one dose
Description: as §1

[11] = tested on: SNB-19; conditions: Homo sapiens, SNB-19, growth inhibition, one dose
Description: as §1

[12] = tested on: U251; conditions: Homo sapiens, U-251, growth inhibition, one dose
Description: as §1

[13] = tested on: UACC-257; conditions: Homo sapiens, UACC-257, growth inhibition, one dose
Description: as §1

[14] = tested on: OVCAR-5; conditions: Homo sapiens, OVCAR-5, growth inhibition, one dose
Description: as §1

[15] = tested on: ACHN; conditions: Homo sapiens, ACHN, growth inhibition, one dose
Description: as §1

[16] = tested on: EKVX; conditions: Homo sapiens, EKVX, growth inhibition, one dose
Description: as §1

[17] = tested on: SK-MEL-28; conditions: Homo sapiens, SK-MEL-28, growth inhibition, one dose
Description: as §1

[18] = tested on: NCI-H460; conditions: Homo sapiens, NCI-H460, growth inhibition, one dose
Description: as §1

[19] = read-out: Growth% inhibition / 5d
[20] = read-out: Growth% inhibition / 5a
[21] = read-out: Growth% inhibition / 5b
[22] = read-out: Growth% inhibition / 5h

`CN(C)c1ccc(C=NNC(=O)/C=C/C=C/c2ccc3c(c2)OCO3)cc1` (mixture of isomers) [5d, (2E,4E)-5-(Benzo[d][1,3]dioxol-5-yl)-N′-((E/Z)-4-(dimethylamino)-benzylidene)penta-2,4-dienehydrazide] was tested, and the inhibition at 10 µM [1, 19] was 22.2%, the inhibition at 10 µM [2, 19] was 20.5% and the inhibition at 10 µM [3, 19] was 16.1%. The inhibition at 10 µM [4, 19] was 23.7%, the inhibition at 10 µM [5, 19] was 24.6% and the inhibition at 10 µM [6, 19] was 62%. The inhibition at 10 µM [7, 19] was 25.7%.
For `O=C(/C=C/C=C/c1ccc2c(c1)OCO2)NN=Cc1ccc(O)cc1` [5a, (2E,4E)-5-(Benzo[d][1,3]dioxol-5-yl)-N′-((E,Z)-4-hydroxybenzylidene)penta-2,4-dienehydrazide], the inhibition at 10 µM [1, 20] was 17.1%, the inhibition at 10 µM [2, 20] was 32.4% and the inhibition at 10 µM [3, 20] was 28.5%. It also gave an inhibition at 10 µM [4, 20] of 39.2%, an inhibition at 10 µM [8, 20] of 21.5% and an inhibition at 10 µM [5, 20] of 25.1%. It also gave an inhibition at 10 µM [9, 20] of 12.7%, an inhibition at 10 µM [10, 20] of 44.1% and an inhibition at 10 µM [6, 20] of 64%. It also gave an inhibition at 10 µM [7, 20] of 27%.
Compound `O=C(/C=C/C=C/c1ccc2c(c1)OCO2)N/N=C/c1ccc(O)cc1O` [5b, (2E,4E)-5-(Benzo[d][1,3]dioxol-5-yl)-N′-((E)-2,4-dihydroxybenzylidene)penta-2,4-dienehydrazide] has an inhibition at 10 µM [1, 21] of 69.7%, an inhibition at 10 µM [2, 21] of 81% and an inhibition at 10 µM [11, 21] of 50.9%. For the same compound, the inhibition at 10 µM [12, 21] was 68.7%, the inhibition at 10 µM [3, 21] was 85.7% and the inhibition at 10 µM [4, 21] was 88.6%. For the same compound, the inhibition at 10 µM [13, 21] was 71.5%, the inhibition at 10 µM [14, 21] was 57.5% and the inhibition at 10 µM [8, 21] was 72.7%. For the same compound, the inhibition at 10 µM [5, 21] was 90.3%, the inhibition at 10 µM [15, 21] was 85.6% and the inhibition at 10 µM [16, 21] was 79.8%. It also gave an inhibition at 10 µM [17, 21] of 57.9%, an inhibition at 10 µM [9, 21] of 90.8% and an inhibition at 10 µM [6, 21] of 78.7%. It also gave an inhibition at 10 µM [7, 21] of 36% and an inhibition at 10 µM [18, 21] of 86%.
With `C/C(=N\NC(=O)/C=C/C=C/c1ccc2c(c1)OCO2)c1ccc(Br)cc1` [5h, (2E,4E)-5-(Benzo[d][1,3]dioxol-5-yl)-N′-((E)-1-(4-bromophenyl)ethylidene)penta-2,4-dienehydrazide] the inhibition at 10 µM [1, 22] was 26.7%, the inhibition at 10 µM [2, 22] was 44.3% and the inhibition at 10 µM [11, 22] was 14.5%. The inhibition at 10 µM [12, 22] was 16%, the inhibition at 10 µM [3, 22] was 28.5% and the inhibition at 10 µM [4, 22] was 44.9%. The inhibition at 10 µM [13, 22] was 12%, the inhibition at 10 µM [14, 22] was 10.7% and the inhibition at 10 µM [5, 22] was 28.1%. For the same compound, the inhibition at 10 µM [15, 22] was 24.1%, the inhibition at 10 µM [16, 22] was 25% and the inhibition at 10 µM [17, 22] was 14.2%. For the same compound, the inhibition at 10 µM [9, 22] was 65.2%, the inhibition at 10 µM [10, 22] was 15.9% and the inhibition at 10 µM [6, 22] was 93.3%. It also gave an inhibition at 10 µM [7, 22] of 68.1% and an inhibition at 10 µM [18, 22] of 60.4%.
